The values below come from paper PMC4877593, “Design and Synthesis of Potent in Vitro and in Vivo Anticancer Agents Based on 1-(3′,4′,5′-Trimethoxyphenyl)-2-Aryl-1H-Imidazole” (Scientific Reports, 2016).

By IC50 is commonly meant the concentration at which inhibition is half-maximal. In general, melting point refers to the temperature of the solid-liquid transition.

Read-outs that look alike come from different tables or passages of the source.

Series [1] deals with tubulin. As to conditions: read-out: IC50 inhibitor of tubulin polymerization; cited from earlier work.
The subject of series [2] is HCT-15 (human colon adenocarcinoma). The note with it: cited from earlier work.
The subject of series [3] is NCI-H460 (human lung large cell carcinoma). The note with it: cited from earlier work.
Series [4] concerns panel of seven human tumor cell lines. Put plainly: Antiproliferative activity across the panel of seven human tumor cell lines. Format: cell-based. Here is the method: (§1) Human T-cell leukemia (CCRF-CEM and Jurkat) and human B-cell leukemia (SEM) cells were grown in RPMI-1640 medium (Gibco, Milano, Italy). Breast adenocarcinoma (MCF7), human cervix carcinoma (HeLa), and human colon adenocarcinoma (HT-29) cells were grown in DMEM medium (Gibco, Milano, Italy), all supplemented with 115 units/mL penicillin G (Gibco, Milano, Italy), 115 μg/mL streptomycin (Invitrogen, Milano, Italy), and 10% fetal bovine serum (Invitrogen, Milano, Italy). Stock solutions (10 mM) of the different compounds were obtained by dissolving them in dimethyl sulfoxide (DMSO). Individual wells of a 96-well tissue culture microtiter plate were inoculated with 100 μL of complete medium containing 8 × 10^3 cells. The plates were incubated at 37 °C in a humidified 5% CO2 incubator for 18 h prior to the experiments. After medium removal, 100 μL of fresh medium containing the test compound at different concentrations was added to each well in triplicate and incubated at 37 °C for 72 h. The percentage of DMSO in the medium never exceeded 0.25%. This was also the maximum DMSO concentration in all cell-based assays described below. […] Different concentrations of the test compounds were added, and viability was determined 72 h later by the MTT test. For cytotoxicity evaluations in resting PBL cultures, non-adherent cells were resuspended (5 × 10^5 cells/mL) and treated for 72 h with the test compounds, as described above.

In another series the test system is HeLa. The series can be described thus: In vitro antiproliferative activity (MTT), HeLa. Type of series: cell-based. The note with it: Homo sapiens, tumor cell proliferation, 72 h, mean ± SE. Here is the method:
as §1

Another series has as its system A549. Put plainly: In vitro antiproliferative activity (MTT), A549. Type of series: cell-based. The note with it: Homo sapiens, tumor cell proliferation, 72 h, mean ± SE. On the procedure:
as §1

For a further series, the system named is HL-60. The series can be described thus: In vitro antiproliferative activity (MTT), HL-60. Format: cell-based. As to conditions: Homo sapiens, tumor cell proliferation, 72 h, mean ± SE.
The subject of a further series is MCF-7. The series can be described thus: In vitro antiproliferative activity (MTT), MCF-7. Type of series: cell-based. As to conditions: Homo sapiens, MCF7, tumor cell proliferation, 72 h, mean ± SE. Here is the method:
as §1

The test system of series [5] is tubulin. Put plainly: Inhibition of [3H]colchicine binding to tubulin. Details: species or system bovine. The note with it: tubulin 1 μM, [3H]colchicine 5 μM.
Method: The ability of the test compounds to inhibit colchicine binding to tubulin was measured as described[22], except that the reaction mixtures contained 1 μM tubulin, 5 μM [^3H]colchicine and 1 or 5 μM test compound.
In the next series the test system is bovine brain tubulin. Put plainly: Inhibition of tubulin polymerization (turbidimetry). Type of series: biochemical. On the procedure: To evaluate the effect of the compounds on tubulin assembly in vitro[22], varying concentrations of compounds were preincubated with 10 μM bovine brain tubulin in glutamate buffer at 30 °C and then cooled to 0 °C. After addition of 0.4 mM GTP (final concentration), the mixtures were transferred to 0 °C cuvettes in a recording spectrophotometer equipped with an electronic temperature controller and warmed to 30 °C. Tubulin assembly was followed turbidimetrically at 350 nm. […] The ability of the test compounds to inhibit colchicine binding to tubulin was measured as described, except that the reaction mixtures contained 1 μM tubulin, 5 μM [^3H]colchicine and 1 or 5 μM test compound.

The test system of the next series is RS4;11. Put plainly: In vitro antiproliferative activity (MTT), RS4;11. Format: cell-based. The note with it: Homo sapiens, tumor cell proliferation, 72 h, mean ± SE.
A further series has as its system Jurkat. The series can be described thus: In vitro antiproliferative activity (MTT), Jurkat. Type of series: cell-based. As to conditions: Homo sapiens, tumor cell proliferation, 72 h, mean ± SE. Here is the method: as §1
The test system of the next series is HT-29. The series can be described thus: In vitro antiproliferative activity (MTT), HT-29. Format: cell-based. As to conditions: Homo sapiens, tumor cell proliferation, 72 h, mean ± SE. Here is the method: as §1
Series [6] deals with panel of seven human tumor cell lines. The note with it: previously published triazole; ref 16d; read-out: IC50 values in the same seven cell lines (range); cited from earlier work.
[7] abbreviates: average over the seven cell lines, read-out: average IC50 values.
Where [8] appears, read: range over seven cancer cell lines, read-out: IC50 values in the seven cell lines (range).
The mark [9] stands for this setting: repeated beside the calculated energies, read-out: inhibition of tubulin polymerization IC50 (Table 4).
Where [10] appears, read: tubulin at 10 μM, 20 min incubation, read-out: Tubulin assembly IC50 ± S.D.

For the compound `COc1cc(-n2ccnc2-c2ccc(N(C)C)cc2)cc(OC)c1OC` [Compound 3a, 1-(3′,4′,5′-trimethoxyphenyl)-2-(4′-N,N-dimethylaminophenyl)-1H-imidazole], the figures for the IC50 (in the series on tubulin [1]; in [2]; in series [3]) were 35000 nM, 80 nM and 270 nM, respectively.

As for `COc1cc(-n2ccnc2-c2ccc3ccccc3c2)cc(OC)c1OC` [Compound 3c, reference compound], the concentration for half-maximal inhibition (IC50) is 15 nM in [4] (setting [7]); 2 to 62.3 nM in series [4] (setting [8]); 2 ± 0.14 nM with HeLa; 7.1 ± 1.5 nM in the series with A549; 24 ± 12.1 nM in the series with HL-60; 51 nM in [2]. Also, the half-inhibitory concentration (IC50) in the series on MCF-7 was 4.6 ± 2.3 nM; with bovine brain tubulin (setting [9]), 1800 nM; in the series on bovine brain tubulin (setting [10]), 1800 nM; in the series on RS4;11, 62.3 ± 10.3 nM; with Jurkat, 2.5 ± 0.9 nM; in the series with HT-29 it was 3.6 ± 0.9 nM. Also, in series [3], the 50% inhibitory concentration (IC50) is 57 nM. In addition, the “Colchicine binding % inhibition ± S.D., 5 μM drug” value with tubulin [5] worked out at 65 ± 4%.

“1-(3′,4′,5′-trimethoxyphenyl)-5-(3′-chloro-4′-ethoxyphenyl) triazole”: in [6], the IC50 is 3 to 20 nM.

Take `COc1ccc(-c2nccn2-c2cc(OC)c(OC)c(OC)c2)cc1` [Compound 3b, reference compound]: the concentration for half-maximal inhibition (IC50) in [4] (setting [7]) is 1710 nM; in series [4] (setting [8]), 210 to 5400 nM; with HeLa, 210 ± 10.2 nM; in the series on A549 it was 1010 ± 104 nM; with HL-60, 4770 ± 120 nM; in series [2], 1600 nM. The IC50 in the series on MCF-7 was 230 ± 55 nM; in the series with RS4;11, 5400 ± 950 nM; in the series on Jurkat, 133 ± 31 nM; with HT-29 it was 233 ± 52 nM; in series [3], 1100 nM.

For `CCOc1ccc(-c2nccn2-c2cc(OC)c(OC)c(OC)c2)cc1` [Compound 4k, 2-(4′-Ethoxyphenyl)-1-(3′,4′,5′-trimethoxyphenyl)-1H-imidazole], the melting point fell in the range of 132 to 134 °C. Besides, the IC50 in series [4] (setting [7]) was 7.1 nM. In addition, in [4] (setting [8]), the IC50 was in the range of 1.8 to 34.7 nM. In the series on HeLa, this compound registered an IC50 of 3.7 ± 0.12 nM. Moreover, inhibition in the series on A549 was half-maximal at 1.9 ± 1 nM (IC50). Moreover, the IC50 with HL-60 was found to be 4.8 ± 1.9 nM. Further, in the series on MCF-7, inhibition was half-maximal at 1.5 ± 0.2 nM (IC50). Also, in the series with bovine brain tubulin (setting [9]), the IC50 is 630 nM. Further, in the series with bovine brain tubulin (setting [10]), the IC50 was determined as 630 nM. The 50% inhibitory concentration (IC50) with RS4;11 is 34.7 nM. In the series with Jurkat, this compound had a 50% inhibitory concentration (IC50) of 1.2 ± 0.5 nM. The compound also had an IC50 with HT-29 of 1.8 ± 0.8 nM.
